{"source": "patent US20180140609A1", "about": "“USE OF (4-HYDROXY-2-METHYL-1,1-DIOXIDO-2H-BENZO[E][1,2]THIAZINE-3-YL)(NAPHTHALENE-2-YL) METHANONE IN THE PREVENTION AND/OR TREATMENT OF NON-ALCOHOLIC STEATOHEPATITIS” (PIERRE FABRE MEDICAMENT, priority 2015, published 2018)", "format_in_all_cases": "in vivo", "key": {"human 11β-HSD type 1 [1]": {"target": "T1, human 11β-HSD type 1 (Homo sapiens, UniProt P28845)", "T1 sequence (P28845 whole entry)": "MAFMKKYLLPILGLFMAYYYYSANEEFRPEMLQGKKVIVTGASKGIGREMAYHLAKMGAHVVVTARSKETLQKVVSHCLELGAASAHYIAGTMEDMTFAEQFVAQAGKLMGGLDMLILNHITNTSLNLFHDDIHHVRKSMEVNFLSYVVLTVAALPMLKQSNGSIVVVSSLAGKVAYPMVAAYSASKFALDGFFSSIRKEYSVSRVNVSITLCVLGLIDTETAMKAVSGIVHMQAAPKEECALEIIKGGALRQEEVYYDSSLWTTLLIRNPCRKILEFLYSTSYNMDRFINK", "test": "Bioactivity of inguinal white adipose tissue after single oral administration in C57BL/6N mice, read as inhibition of human 11β-HSD type 1 (SPA)", "settings": "mouse inguinal white adipose tissue extract", "description": "Four hours post-administration, the mice are euthanized and inguinal white adipose tissue is taken and frozen at −70° C. until the day of bioanalyses. The white adipose tissue is homogenized in liquid nitrogen and then treated with acetonitrile (1 ml of distilled water for 4 ml of acetonitrile and 200 mg of inguinal white adipose tissue) to extract soluble substances. The acetonitrile fraction is collected, then dried, and the residue is dissolved in 1 ml of DMSO for 300 mg of white adipose tissue.\nCompounds tested: the same as those of Example 2."}, "11β-HSD type 1": {"system": "11β-HSD type 1", "test": "Inhibition of conversion of prednisone to prednisolone after single administration to cynomolgus monkeys", "settings": "for inhibition of the prednisolone/prednisone ratio in animals that respond favorably: responders only; for inhibition of plasma prednisolone/prednisone ratio of AUC (30 minutes to 4 hours): prednisone 10 mg/kg 2 h later", "description": "The protocol used is described by Bhat et al. (J. Pharmacol. Exp. Ther. 324, 299-305, 2008).\n(§1) Briefly, the study is carried out in naive adult male cynomolgus monkeys fasted overnight. The 11β-HSD type 1 inhibitor or its vehicle (0.5% methylcellulose in water) is administered via nasogastric intubation. Two hours later, a challenge with orally administered prednisone (10 mg/kg) is performed and blood samples are taken regularly for 24 hours. These samples are centrifuged to obtain plasma and immediately frozen at −70° C. until bioanalysis. Plasma levels of prednisone, prednisolone and 11β-HSD type 1 inhibitors are measured by LC-MS/MS analytical methods.\n(§2) The study is carried out over a period of 10 weeks. Profiles of plasma concentration as a function of time and areas under the curve are calculated using the trapezoidal method for all parameters.\nThe effect of Compound 1 is evaluated at three doses: 1.25, 5 and 20 mg/kg.\nThe effect of Compound 1K is evaluated at three doses: 20, 40 and 80 mg/kg. The protocol is quite similar to the preceding, except that only 5 blood samples were taken per monkey rather than 7. Compound 1K was also evaluated over a period of 10 weeks.\nThe 11β-HSD type 1 activity-dependent conversion of prednisone to prednisolone was evaluated. Compound 2K inhibits roughly 50% this activity at a dose of 20 mg/kg (FIG. 2A). FIG. 2 represents the effects of Compound 2K, at the three doses tested, on plasma prednisolone/prednisone ratio calculated with the area under the curve between 30 minutes and 4 hours (panel A) and on plasma exposure during the 6-hour experimental period (panel B); the results obtained with Compound 1K at a dose of 5 mg/kg are compared in the two panels."}, "[2]": {"test": "Plasma level by LC/MS after single oral administration in C57BL/6N mice", "settings": "parent molecule by LC/MS", "description": "(§3) The evaluation is made in on 4- to 6-week-old non-fasted male C57BL/6N strain mice. The compounds to be tested or the vehicle (0.5% methylcellulose in water, at 10 ml/kg) are administered orally; n=3 mice per treatment.\n(§4) Blood samples are collected 1 h and 4 h after administration; the tubes are centrifuged to obtain plasma and frozen at −70° C. until bioanalysis. Plasma bioactivity (2% final volume) is analyzed by using the inhibition of human 11β-HSD type 1 as a detection system (SPA technology) for each compound at each dose tested. Percent inhibition (versus mice treated with carrier) is calculated for each dose.\nCompound 1 is detected in the plasma of the treated mice and inhibits 11β-HSD type 1 as of 0.63 mg/kg. LC/MS analyses of plasma samples from the animals treated with Compound 1K show a much higher plasma level of the parent molecule than that found for Compound 1."}, "[3]": {"test": "Clinical and behavioral signs in cynomolgus monkeys during the prednisone challenge studies", "settings": "study no. 1, 1.25, 5 and 20 mg/kg", "description": "as §1, §2"}, "human 11β-HSD type 1 [4]": {"target": "T1, human 11β-HSD type 1", "test": "Plasma bioactivity after single oral administration in C57BL/6N mice, read as inhibition of human 11β-HSD type 1 (SPA)", "settings": "for inhibition at 2.5 mg/kg: 2.5 mg/kg oral; for inhibition at 2.5 mg/kg / inhibition at 10 mg/kg: table with plasma levels; for inhibition at 10 mg/kg: 10 mg/kg oral", "description": "as §3, §4"}, "[5]": {"settings": "mice, 1 h, read-out: Plasma 1 h % inh."}, "[6]": {"settings": "mice, 4 h, read-out: Plasma 4 h % inh."}, "[7]": {"settings": "mouse plasma (2% final volume), 1 h after 0.63 mg/kg oral"}, "[8]": {"settings": "mouse plasma, 1 h after 2.5 mg/kg oral"}, "[9]": {"settings": "mouse plasma, 1 h after 10 mg/kg oral"}, "[10]": {"settings": "mouse plasma, 1 h after 40 mg/kg oral"}, "[11]": {"settings": "mouse plasma, 4 h after 0.63 mg/kg oral"}, "[12]": {"settings": "mouse plasma, 4 h after 2.5 mg/kg oral"}, "[13]": {"settings": "mouse plasma, 4 h after 10 mg/kg oral"}, "[14]": {"settings": "mouse plasma, 4 h after 40 mg/kg oral"}}, "note": "Where two headings read alike, the source gives them in different places.", "data": [{"smiles": "CN1C(C(=O)c2ccc3ccccc3c2)=C(O)c2ccccc2S1(=O)=O", "note": "[Compound 1, (4-hydroxy-2-methyl-1,1-dioxido-2H-benzo[e][1,2]thiazin-3-yl)(naphthalen-2-yl)methanone]", "values": [{"measurement": "% inhibition after 4 h", "setting": "human 11β-HSD type 1 [1]; 4 h after 0.63 mg/kg oral", "result": 8, "unit": "%"}, {"measurement": "% inhibition after 4 h", "setting": "human 11β-HSD type 1 [1]; 4 h after 2.5 mg/kg oral", "result": 36, "unit": "%"}, {"measurement": "% inhibition after 4 h", "setting": "human 11β-HSD type 1 [1]; 4 h after 10 mg/kg oral", "result": 63, "unit": "%"}, {"measurement": "% inhibition after 4 h", "setting": "human 11β-HSD type 1 [1]; 4 h after 40 mg/kg oral", "result": 79, "unit": "%"}, {"measurement": "animals that respond favorably to the treatment", "setting": "11β-HSD type 1; 5 mg/kg", "result": 60, "unit": "%"}, {"measurement": "inhibition of the prednisolone/prednisone ratio in animals that respond favorably", "setting": "11β-HSD type 1; 5 mg/kg", "result": 28, "unit": "%"}, {"measurement": "animals that respond favorably to the treatment", "setting": "11β-HSD type 1; 20 mg/kg", "result": 80, "unit": "%"}, {"measurement": "inhibition of plasma prednisolone/prednisone ratio of AUC (30 minutes to 4 hours)", "setting": "11β-HSD type 1; 20 mg/kg", "result": 34, "unit": "%"}, {"measurement": "inhibition of the prednisolone/prednisone ratio in animals that respond favorably", "setting": "11β-HSD type 1; 20 mg/kg", "result": 46, "unit": "%"}, {"measurement": "dose as of which inhibition of 11β-HSD type 1 is significant and dose-dependent", "setting": "11β-HSD type 1; doses 1.25, 5 and 20 mg/kg", "result": 5, "unit": "mg/kg"}, {"measurement": "Plasma 1 h", "setting": "[2]; 2.5 mg/kg oral", "result": "2598 ± 1478", "unit": "ng/mL"}, {"measurement": "Plasma 4 h", "setting": "[2]; 2.5 mg/kg oral", "result": "2205 ± 1250", "unit": "ng/mL"}, {"measurement": "Plasma 1 h", "setting": "[2]; 10 mg/kg oral", "result": "3675 ± 1781", "unit": "ng/mL"}, {"measurement": "Plasma 4 h", "setting": "[2]; 10 mg/kg oral", "result": "3823 ± 2011", "unit": "ng/mL"}, {"measurement": "clinical or behavioral sign", "setting": "[3]", "result": "No particular clinical or behavioral sign"}, {"measurement": "inhibition at 2.5 mg/kg", "setting": "human 11β-HSD type 1 [4]; [5]", "result": "65 ± 8", "unit": "%"}, {"measurement": "inhibition at 2.5 mg/kg", "setting": "human 11β-HSD type 1 [4]; [6]", "result": "58 ± 5", "unit": "%"}, {"measurement": "inhibition at 10 mg/kg", "setting": "human 11β-HSD type 1 [4]; [5]", "result": "75 ± 8", "unit": "%"}, {"measurement": "inhibition at 10 mg/kg", "setting": "human 11β-HSD type 1 [4]; [6]", "result": "73 ± 4", "unit": "%"}, {"measurement": "dose as of which plasma of treated mice inhibits 11β-HSD type 1", "setting": "human 11β-HSD type 1 [4]; mice, single oral administration", "result": 0.63, "unit": "mg/kg"}, {"measurement": "% inhibition at 1 h", "setting": "human 11β-HSD type 1 [4]; [7]", "result": 40, "unit": "%"}, {"measurement": "% inhibition at 1 h", "setting": "human 11β-HSD type 1 [4]; [8]", "result": 64, "unit": "%"}, {"measurement": "% inhibition at 1 h", "setting": "human 11β-HSD type 1 [4]; [9]", "result": 81, "unit": "%"}, {"measurement": "% inhibition at 1 h", "setting": "human 11β-HSD type 1 [4]; [10]", "result": 93, "unit": "%"}, {"measurement": "% inhibition at 4 h", "setting": "human 11β-HSD type 1 [4]; [11]", "result": 31, "unit": "%"}, {"measurement": "% inhibition at 4 h", "setting": "human 11β-HSD type 1 [4]; [12]", "result": 60, "unit": "%"}, {"measurement": "% inhibition at 4 h", "setting": "human 11β-HSD type 1 [4]; [13]", "result": 81, "unit": "%"}, {"measurement": "% inhibition at 4 h", "setting": "human 11β-HSD type 1 [4]; [14]", "result": 94, "unit": "%"}]}, {"smiles": "CN1C(C(=O)c2ccc(-c3ccc(C#N)cc3)cc2)=C([O-])c2ccccc2S1(=O)=O.[K+]", "note": "[Compound 2K, potassium 3-(4′-cyanobiphenyl-4-carbonyl)-2-methyl-2H-benzo[e][1,2]thiazin-4-olate 1,1-dioxide, reference compound]", "values": [{"measurement": "% inhibition after 4 h", "setting": "human 11β-HSD type 1 [1]; 4 h after 0.63 mg/kg oral", "result": 17, "unit": "%"}, {"measurement": "% inhibition after 4 h", "setting": "human 11β-HSD type 1 [1]; 4 h after 2.5 mg/kg oral", "result": 46, "unit": "%"}, {"measurement": "% inhibition after 4 h", "setting": "human 11β-HSD type 1 [1]; 4 h after 10 mg/kg oral", "result": 72, "unit": "%"}, {"measurement": "inhibition of plasma prednisolone/prednisone ratio of AUC (30 minutes to 4 hours)", "setting": "11β-HSD type 1; 20 mg/kg", "result": "roughly 50%"}, {"measurement": "activity on conversion of prednisone to prednisolone", "setting": "11β-HSD type 1; doses below 20 mg/kg (1.25, 5 mg/kg)", "result": "inactive"}, {"measurement": "% inhibition at 1 h", "setting": "human 11β-HSD type 1 [4]; [7]", "result": 26, "unit": "%"}, {"measurement": "% inhibition at 1 h", "setting": "human 11β-HSD type 1 [4]; [8]", "result": 63, "unit": "%"}, {"measurement": "% inhibition at 1 h", "setting": "human 11β-HSD type 1 [4]; [9]", "result": 84, "unit": "%"}, {"measurement": "% inhibition at 4 h", "setting": "human 11β-HSD type 1 [4]; [11]", "result": 29, "unit": "%"}, {"measurement": "% inhibition at 4 h", "setting": "human 11β-HSD type 1 [4]; [12]", "result": 65, "unit": "%"}, {"measurement": "% inhibition at 4 h", "setting": "human 11β-HSD type 1 [4]; [13]", "result": 86, "unit": "%"}]}, {"smiles": "C1CCc2nnc(C34CC5CC(CC(C5)C3)C4)n2CC1", "note": "[Compound 3, 3-(1-adamantyl)-6,7,8,9-tetrahydro-5H-[1,2,4]triazolo[4,3-a]azepine, reference compound]", "values": [{"measurement": "% inhibition after 4 h", "setting": "human 11β-HSD type 1 [1]; 4 h after 10 mg/kg oral", "result": 15, "unit": "%"}, {"measurement": "% inhibition after 4 h", "setting": "human 11β-HSD type 1 [1]; 4 h after 40 mg/kg oral", "result": 8, "unit": "%"}, {"measurement": "% inhibition after 4 h", "setting": "human 11β-HSD type 1 [1]; 4 h after 80 mg/kg oral", "result": 13, "unit": "%"}, {"measurement": "% inhibition at 1 h", "setting": "human 11β-HSD type 1 [4]; [9]", "result": 93, "unit": "%"}, {"measurement": "% inhibition at 1 h", "setting": "human 11β-HSD type 1 [4]; [10]", "result": 98, "unit": "%"}, {"measurement": "% inhibition at 1 h", "setting": "human 11β-HSD type 1 [4]; mouse plasma, 1 h after 80 mg/kg oral", "result": 101, "unit": "%"}, {"measurement": "% inhibition at 4 h", "setting": "human 11β-HSD type 1 [4]; [13]", "result": 22, "unit": "%"}, {"measurement": "% inhibition at 4 h", "setting": "human 11β-HSD type 1 [4]; [14]", "result": 68, "unit": "%"}, {"measurement": "% inhibition at 4 h", "setting": "human 11β-HSD type 1 [4]; mouse plasma, 4 h after 80 mg/kg oral", "result": 94, "unit": "%"}]}]}
